{"source": "patent US20260191849A1", "about": "“PHARMACEUTICAL COMPOSITION FOR TREATMENT OF CANCER” (WIGEN BIOMEDICINE TECHNOLOGY (SHANGHAI) CO., LTD., priority 2022, published 2026)", "assay_type_in_all_cases": "cell-based", "key": {"HT29 cells [1]": {"test_system": "HT29 cells", "experiment": "Combined use of compound 257 or AMG650 with PLK1 inhibitor on HT29 cell viability, 168 h (Biological Example 7)", "conditions": "for Maximum inhibition rate / Minimum inhibition rate / IC50: HT29 cells; for IC50: Homo sapiens, HT-29, 168 h", "description": "(§1) HT29 cells were seeded on a 384-well plate at 3000 cells/well. After overnight adherence culture, DMSO or compound 257 or AMG650 serially diluted in a 1:5 ratio from 400 nM and a PLK1 inhibitor with a specified concentration were added. The cell viability was assessed 168 h after dosing by measuring the intracellular ATP content. The inhibition percentages of viable cells by the compounds were calculated by comparing with the DMSO group, and the IC50 values were also calculated."}, "HCT116 cells [2]": {"test_system": "HCT116 cells", "experiment": "Combined use of compound 257 or AMG650 with PLK1 inhibitor on HCT116 cell viability, 168 h (Biological Example 8)", "description": "as §1, with “HCT116” for “HT29”, “10 μM” for “400 nM”"}, "HT29 cells [3]": {"test_system": "HT29 cells", "experiment": "Combined use of compound 257, AMG650 or Compound A with PLK1 inhibitor on HT29 cell viability, 168 h (Biological Example 19)", "conditions": "for IC50: Homo sapiens, HT-29, 168 h, HT29 cells, read-out: IC50", "description": "HT29 cells were seeded on a 384-well plate at 3000 cells/well."}, "HCT116 cells [4]": {"test_system": "HCT116 cells", "experiment": "Combined use of compound 257, AMG650 or Compound A with PLK1 inhibitor on HCT116 cell viability, 168 h (Biological Example 20)", "description": "as §1, with “HCT116” for “HT29”, “257, AMG650,” for “257”, “Compound A” for “AMG650”"}, "SK-OV-3 cells": {"test_system": "SK-OV-3 cells", "experiment": "Combined use of compound 257 or AMG650 with PLK1 inhibitor on SK-OV-3 cell viability, 168 h (Biological Example 21)", "conditions": "for IC50: Homo sapiens, SK-OV-3, 168 h", "description": "(§2) SK—OV-3 cells were seeded on a 384-well plate at 3000 cells/well. After overnight adherence culture, DMSO or compound 257 or AMG650 serially diluted in a 1:5 ratio from 400 nM and a PLK1 inhibitor with a specified concentration were added. The cell viability was assessed 168 h after dosing by measuring the intracellular ATP content. […] Furthermore, interactions between the drugs were also analyzed using the BLISS independence model, and the results are shown in FIG. 11 and FIG. 12."}, "HT29 cells [5]": {"test_system": "HT29 cells", "experiment": "Combined use of compound 257 or AMG650 with PLK1 inhibitor (Volasertib) on HT29 cell viability, 168 h (Biological Example 22)", "conditions": "for IC50: Homo sapiens, HT-29, 168 h", "description": "as §2, with “HT29” for “SK—OV-3”, “15” for “11”, “16.” for “12.”"}}, "note": "Like-named read-outs stand apart in the source and are kept apart here."}
{"smiles": "Cc1cc(NC(=O)c2ccc(NS(=O)(=O)CCO)cc2N2CCC3(CC2)CC3)nc(N2CCC(F)(F)CC2)n1", "note": "[AMG650]", "values": [{"measurement": "Maximum inhibition rate", "setting": "HT29 cells [1]; Volasertib 0 nM", "result": 96.5, "unit": "%"}, {"measurement": "Minimum inhibition rate", "setting": "HT29 cells [1]; Volasertib 0 nM", "result": "−1.4", "unit": "%"}, {"measurement": "Maximum inhibition rate", "setting": "HT29 cells [1]; Volasertib 3.12 nM", "result": 95.8, "unit": "%"}, {"measurement": "Minimum inhibition rate", "setting": "HT29 cells [1]; Volasertib 3.12 nM", "result": 3.3, "unit": "%"}, {"measurement": "Maximum inhibition rate", "setting": "HT29 cells [1]; Volasertib 6.25 nM", "result": 97.0, "unit": "%"}, {"measurement": "Minimum inhibition rate", "setting": "HT29 cells [1]; Volasertib 6.25 nM", "result": "−0.4", "unit": "%"}, {"measurement": "IC50", "setting": "HT29 cells [1]; Volasertib 0 nM", "result": 84.4, "unit": "nM"}, {"measurement": "IC50", "setting": "HT29 cells [1]; Volasertib 3.12 nM", "result": 26.6, "unit": "nM"}, {"measurement": "IC50", "setting": "HT29 cells [1]; Volasertib 6.25 nM", "result": 16.4, "unit": "nM"}, {"measurement": "inhibitory effect on HT-29 cells, combined use with the PLK1 inhibitor compared with monotherapy", "setting": "HT29 cells [1]; Volasertib, in words", "result": "stronger inhibitory effect"}, {"measurement": "IC50", "setting": "HCT116 cells [2]; HCT116 cells, Volasertib 3.12 nM", "result": "> 10000", "unit": "nM"}, {"measurement": "IC50", "setting": "HCT116 cells [2]; HCT116 cells, Volasertib 6.25 nM", "result": "> 10000", "unit": "nM"}, {"measurement": "IC50", "setting": "HCT116 cells [2]; Homo sapiens, HCT-116, HCT116 cells, Volasertib 0 nM", "result": "> 10000", "unit": "nM"}, {"measurement": "synergistic effect on HCT116 cell viability, combined use with the PLK1 inhibitor", "setting": "HCT116 cells [2]; Volasertib, in words", "result": "no significant synergistic effect"}, {"measurement": "anti-proliferative activity against HCT116 cells, monotherapy", "setting": "HCT116 cells [2]; in words", "result": "did not exhibit anti-proliferative activity"}, {"measurement": "inhibitory effect on HT-29 cells, combined use with the PLK1 inhibitor compared with monotherapy", "setting": "HT29 cells [3]; CYC140 or TAK-960, in words", "result": "stronger inhibitory effect"}, {"measurement": "IC50", "setting": "HT29 cells [3]; CYC140 (Plogosertib) 0.0001 nM", "result": 91.8, "unit": "nM"}, {"measurement": "IC50", "setting": "HT29 cells [3]; CYC140 (Plogosertib) 1.6 nM", "result": 74.4, "unit": "nM"}, {"measurement": "IC50", "setting": "HT29 cells [3]; CYC140 (Plogosertib) 8 nM", "result": 50.6, "unit": "nM"}, {"measurement": "IC50", "setting": "HT29 cells [3]; CYC140 (Plogosertib) 40 nM", "result": 11.1, "unit": "nM"}, {"measurement": "IC50", "setting": "HT29 cells [3]; TAK-960 0.0001 nM", "result": 88.9, "unit": "nM"}, {"measurement": "IC50", "setting": "HT29 cells [3]; TAK-960 1.6 nM", "result": 58.6, "unit": "nM"}, {"measurement": "IC50", "setting": "HT29 cells [3]; TAK-960 8 nM", "result": 16.5, "unit": "nM"}, {"measurement": "IC50", "setting": "HT29 cells [3]; TAK-960 40 nM", "result": 16.1, "unit": "nM"}, {"measurement": "synergistic effect on HCT116 cell viability, combined use with the PLK1 inhibitor", "setting": "HCT116 cells [4]; CYC140 or TAK-960, in words", "result": "no significant synergistic effect"}, {"measurement": "IC50", "setting": "HCT116 cells [4]; HCT116 cells, CYC140 (Plogosertib) 1.6 nM", "result": "> 400", "unit": "nM"}, {"measurement": "IC50", "setting": "HCT116 cells [4]; HCT116 cells, CYC140 (Plogosertib) 8 nM", "result": "> 400", "unit": "nM"}, {"measurement": "IC50", "setting": "HCT116 cells [4]; HCT116 cells, CYC140 (Plogosertib) 40 nM", "result": "> 400", "unit": "nM"}, {"measurement": "IC50", "setting": "HCT116 cells [4]; HCT116 cells, TAK-960 0 nM", "result": "> 400", "unit": "nM"}, {"measurement": "IC50", "setting": "HCT116 cells [4]; HCT116 cells, TAK-960 1.6 nM", "result": "> 400", "unit": "nM"}, {"measurement": "IC50", "setting": "HCT116 cells [4]; HCT116 cells, TAK-960 8 nM", "result": "> 400", "unit": "nM"}, {"measurement": "IC50", "setting": "HCT116 cells [4]; HCT116 cells, TAK-960 40 nM", "result": "> 400", "unit": "nM"}, {"measurement": "IC50", "setting": "HCT116 cells [4]; Homo sapiens, HCT-116, HCT116 cells, CYC140 (Plogosertib) 0 nM", "result": "> 400", "unit": "nM"}, {"measurement": "anti-proliferative activity against HCT116 cells, monotherapy", "setting": "HCT116 cells [4]; in words", "result": "did not exhibit anti-proliferative activity"}, {"measurement": "inhibitory effect on SK-OV-3 cells, combined use with the PLK1 inhibitor compared with monotherapy", "setting": "SK-OV-3 cells; 168 h, Volasertib, in words", "result": "stronger inhibitory effect"}, {"measurement": "IC50", "setting": "SK-OV-3 cells", "result": 66, "unit": "nM"}, {"measurement": "IC50", "setting": "SK-OV-3 cells; SK-OV-3 cells, 168 h, Volasertib 0.0001 nM, read-out: IC50", "result": 72.2, "unit": "nM"}, {"measurement": "IC50", "setting": "SK-OV-3 cells; SK-OV-3 cells, 168 h, Volasertib 6.25 nM, read-out: IC50", "result": 51.7, "unit": "nM"}, {"measurement": "IC50", "setting": "SK-OV-3 cells; SK-OV-3 cells, 168 h, Volasertib 12.5 nM, read-out: IC50", "result": 34.5, "unit": "nM"}, {"measurement": "IC50", "setting": "SK-OV-3 cells; SK-OV-3 cells, 168 h, Volasertib 25 nM, read-out: IC50", "result": 27.1, "unit": "nM"}, {"measurement": "IC50", "setting": "SK-OV-3 cells; SK-OV-3 cells, 168 h, Volasertib 50 nM, read-out: IC50", "result": 11.2, "unit": "nM"}, {"measurement": "inhibitory effect on HT-29 cells, combined use with the PLK1 inhibitor compared with monotherapy", "setting": "HT29 cells [5]; 168 h, Volasertib, in words", "result": "stronger inhibitory effect"}, {"measurement": "IC50", "setting": "HT29 cells [5]", "result": 30.2, "unit": "nM"}, {"measurement": "IC50", "setting": "HT29 cells [5]; HT29 cells, 168 h, Volasertib 0.0001 nM, read-out: IC50", "result": 79.9, "unit": "nM"}, {"measurement": "IC50", "setting": "HT29 cells [5]; HT29 cells, 168 h, Volasertib 3.13 nM, read-out: IC50", "result": 43, "unit": "nM"}, {"measurement": "IC50", "setting": "HT29 cells [5]; HT29 cells, 168 h, Volasertib 12.5 nM, read-out: IC50", "result": 14.2, "unit": "nM"}, {"measurement": "IC50", "setting": "HT29 cells [5]; HT29 cells, 168 h, Volasertib 25 nM, read-out: IC50", "result": 5.9, "unit": "nM"}]}
